Test results published in article PMC7013301 (Evidence-based Complementary and Alternative Medicine : eCAM, 2020).
pIC50: −log10 of the molar value. Like-named read-outs stand apart in the source and are kept apart here. No end group written: not given here.

Tests used:
human CRF2 receptor = biological target: T1, human CRF2 receptor (Homo sapiens, UniProt Q13324); test: Antagonistic activity against CRF2 receptor, CRF-induced cAMP production (HTRF) in HEK-293 cells; format: cell-based
T1 construct: host or cells: HEK-293
T1 sequence (Q13324 1-411): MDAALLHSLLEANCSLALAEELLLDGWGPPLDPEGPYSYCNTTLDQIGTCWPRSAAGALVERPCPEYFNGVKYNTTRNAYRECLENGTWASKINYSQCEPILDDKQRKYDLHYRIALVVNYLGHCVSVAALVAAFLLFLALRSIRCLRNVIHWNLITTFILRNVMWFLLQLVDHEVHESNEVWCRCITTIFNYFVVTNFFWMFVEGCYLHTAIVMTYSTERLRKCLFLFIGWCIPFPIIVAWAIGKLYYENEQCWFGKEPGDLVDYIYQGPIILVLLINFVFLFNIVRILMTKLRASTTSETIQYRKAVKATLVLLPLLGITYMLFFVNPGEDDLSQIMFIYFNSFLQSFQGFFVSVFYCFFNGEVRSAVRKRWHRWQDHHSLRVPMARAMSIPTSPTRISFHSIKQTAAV
Protocol: (§1) Assays were performed at Eurofins Discovery (MO, USA). Briefly, evaluation of the inhibitory activities against human recombinant acetylcholinesterase (AChE) expressed in HEK-293 cells was performed by preincubation with test compound and/or vehicle with 41ng/ml of enzyme for 15 minutes at 25°C in phosphate buffer pH 7.4. After 20 minute incubation with 0.7 mM acetylthiocholine iodide and 0.5 mM 5,5-dithiobis-2-nitrobenzoic acid, the spectrophotometric absorbance was read at 405 nm (Catalog No. 104010). Evaluation of the antagonistic activities against human CRF2 receptor transfected in HEK-293 cells was performed by measuring the effects of the test compounds on cAMP production induced by 100 nM human CRF incubated for 30 minutes at room temperature via the HTRF detection method (Catalog No. 2086). Evaluation of the antagonistic activities against human dopamine D2, D3, and neuropeptide Y (NPY) Y2 receptors expressed in CHO-K1 cells, CHO-K1, and KAN-TS cells, respectively, was performed by preincubation of the test compounds and/or vehicle with the membrane proteins (0.1, 0.04, 0.04 mg/ml, respectively) and GDP (10, 1, 0.001 mM) in 20 mM HEPES, pH 7.4, 100 mM NaCl, 10 mM MgCl2, 1 mM DTT, and 1 mM EDTA for 20 minutes at 25°C, and SPA beads are then added for another 60 minutes at 30°C. The reaction was initiated by 0.3 nM [^35S]GTPγS for an additional incubation period (15, 30, 30 minute). Inhibition on increase of [^35S]GTPS binding response induced by dopamine (10, 0.03 mM) or 3 nM human NPY was assessed as receptor antagonist activities of test compounds (Catalog No. 310200, 310400, 332520). Evaluation of the antagonistic activities of shogaol and gingerol against human […] NPY Y2 receptor expressed in RBL cells was performed by measuring the effects of the test compounds on calcium flux induced by 15 nM human NPY (Catalog No. 4287). A concentration-response curve was generated to calculate IC50 values.

[1] = biological target: T2, human recombinant acetylcholinesterase (AChE) (Homo sapiens, UniProt P22303); test: Inhibition of recombinant acetylcholinesterase, spectrophotometric (acetylthiocholine/DTNB); format: biochemical; conditions: pH 7.4, 25°C
T2 construct: purchased Eurofins Discovery 104010; host or cells: HEK-293
T2 sequence (P22303 32-614): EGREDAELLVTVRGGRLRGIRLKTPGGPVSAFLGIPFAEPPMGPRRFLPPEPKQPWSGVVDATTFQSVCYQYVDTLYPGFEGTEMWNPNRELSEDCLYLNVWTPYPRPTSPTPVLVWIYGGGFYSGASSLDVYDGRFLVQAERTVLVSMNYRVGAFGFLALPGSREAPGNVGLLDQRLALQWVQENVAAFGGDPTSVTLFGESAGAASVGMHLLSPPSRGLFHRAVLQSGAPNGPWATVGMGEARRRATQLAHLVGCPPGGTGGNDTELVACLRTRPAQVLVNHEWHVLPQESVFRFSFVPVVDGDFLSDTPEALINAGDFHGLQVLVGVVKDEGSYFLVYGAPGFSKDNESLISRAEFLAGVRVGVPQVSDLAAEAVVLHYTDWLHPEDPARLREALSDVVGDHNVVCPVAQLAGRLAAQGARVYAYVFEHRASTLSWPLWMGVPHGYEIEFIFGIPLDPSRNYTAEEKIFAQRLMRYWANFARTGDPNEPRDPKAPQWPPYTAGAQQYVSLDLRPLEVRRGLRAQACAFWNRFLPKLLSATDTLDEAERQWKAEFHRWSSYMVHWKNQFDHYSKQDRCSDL
Protocol: as §1

human NPY Y2 receptor = biological target: T3, human NPY Y2 receptor (Homo sapiens, UniProt P49146); test: Antagonistic activity of shogaol and gingerol against NPY Y2 receptor, calcium flux in RBL cells; format: cell-based; conditions: calcium flux induced by 15 nM human NPY
T3 construct: host or cells: RBL
T3 sequence (P49146 1-381): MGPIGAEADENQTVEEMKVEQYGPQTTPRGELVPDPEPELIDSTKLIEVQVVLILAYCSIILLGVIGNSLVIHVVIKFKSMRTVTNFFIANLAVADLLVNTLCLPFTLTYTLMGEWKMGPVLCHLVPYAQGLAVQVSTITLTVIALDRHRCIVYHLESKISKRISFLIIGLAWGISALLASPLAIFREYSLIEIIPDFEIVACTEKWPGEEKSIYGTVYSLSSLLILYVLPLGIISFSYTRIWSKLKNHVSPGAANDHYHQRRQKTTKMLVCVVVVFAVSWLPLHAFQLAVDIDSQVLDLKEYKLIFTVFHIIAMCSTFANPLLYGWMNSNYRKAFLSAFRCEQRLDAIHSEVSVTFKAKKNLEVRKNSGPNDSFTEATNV
Protocol: as §1

[2] = biological target: T4, human dopamine D2 receptor (Homo sapiens, UniProt P14416); test: Antagonistic activity against dopamine D2 receptor, [35S]GTPγS binding, CHO-K1 membranes; format: biochemical
T4 construct: host or cells: CHO-K1 (membranes)
T4 sequence (P14416 whole entry): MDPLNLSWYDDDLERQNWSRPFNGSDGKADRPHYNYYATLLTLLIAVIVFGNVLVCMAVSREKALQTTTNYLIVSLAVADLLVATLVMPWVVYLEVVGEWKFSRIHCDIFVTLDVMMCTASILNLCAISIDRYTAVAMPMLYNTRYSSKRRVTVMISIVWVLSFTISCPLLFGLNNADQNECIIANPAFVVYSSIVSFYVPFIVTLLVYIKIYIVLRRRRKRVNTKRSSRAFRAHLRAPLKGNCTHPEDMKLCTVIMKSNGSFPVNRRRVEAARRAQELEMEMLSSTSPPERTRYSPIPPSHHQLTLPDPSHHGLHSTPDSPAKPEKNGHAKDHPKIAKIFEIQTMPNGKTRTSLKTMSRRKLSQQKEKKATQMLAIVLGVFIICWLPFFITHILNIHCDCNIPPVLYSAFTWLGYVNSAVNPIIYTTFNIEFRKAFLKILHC
Protocol: as §1

[3] = biological target: T5, human dopamine D3 receptor (Homo sapiens, UniProt P35462); test: Antagonistic activity against dopamine D3 receptor, [35S]GTPγS binding, CHO-K1 membranes; format: biochemical
T5 construct: host or cells: CHO-K1 (membranes)
T5 sequence (P35462 whole entry): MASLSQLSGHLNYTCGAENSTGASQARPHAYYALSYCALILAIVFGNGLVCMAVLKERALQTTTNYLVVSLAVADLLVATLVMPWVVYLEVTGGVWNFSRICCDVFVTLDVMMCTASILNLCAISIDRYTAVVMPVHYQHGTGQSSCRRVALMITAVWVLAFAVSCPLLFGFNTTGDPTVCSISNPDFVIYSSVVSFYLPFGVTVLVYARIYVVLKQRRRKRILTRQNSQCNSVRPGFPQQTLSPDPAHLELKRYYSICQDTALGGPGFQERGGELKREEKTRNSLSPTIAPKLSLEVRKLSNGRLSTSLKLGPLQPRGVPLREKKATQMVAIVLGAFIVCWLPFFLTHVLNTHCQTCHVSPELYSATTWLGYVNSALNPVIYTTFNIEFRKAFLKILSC
Protocol: as §1

[4] = cited from earlier work
[5] = biological target: T6, human neuropeptide Y (NPY) Y2 receptor (Homo sapiens, UniProt P49146); test: Antagonistic activity against NPY Y2 receptor, [35S]GTPγS binding, KAN-TS membranes; format: biochemical
T6 construct: host or cells: KAN-TS (membranes)
T6 sequence (P49146 1-381): T3 sequence (P49146 1-381)
Protocol: as §1

AChE = conditions: cited from earlier work
C57BL/6 mice = test: CRF-induced delayed gastric emptying of solid meal in mice; format: in vivo; conditions: CRF ICV 0.3 and 1.0 μg/mouse, vs vehicle
Protocol: Seven-week-old male C57BL/6 mice (weighing 20–27 g) were purchased from Charles River Laboratories (Tokyo, Japan). Five mice were housed in a plastic cage (230 × 310 × 155 mm) with bedding materials and acclimated for a week in a controlled environment (20–26°C, 30–70% humidity) under a 12-hour light/dark cycle with free access to standard chow and water. This study was approved by and conducted according to the guidelines of the experimental animal ethics committees of Tsumura & Co. (Tokyo, Japan; Permit No. 14-094-1).
BGH was manufactured by Tsumura & Co., complying with the quality standards authorized in the Japanese Pharmacopoeia, which was published under the authority of the Japanese Ministry of Health, Labour and Welfare. […]
Solid gastric emptying was evaluated using a test meal containing 20 g of ground meal and 40.61 mL of distilled water. […] The gastric emptying of solid meal was calculated using the equation below: […]

[6] = cAMP production induced by 100 nM human CRF, HEK-293, read-out: IC50 value CRF2
[7] = inhibition of dopamine-induced [35S]GTPγS binding, read-out: IC50 value D2
[8] = inhibition of dopamine-induced [35S]GTPγS binding, read-out: IC50 value D3
[9] = reported value from previous study (*) ref 23

Molecule	pIC50 (human CRF2 receptor; [6])	pIC50 [1]	pIC50 (human NPY Y2 receptor)	pIC50 [2, 7]	pIC50 [3, 8]	pIC50 (human CRF2 receptor)	pIC50 [5]	also measured
CCCCC/C=C/C(=O)CCc1ccc(O)c(OC)c1 [6-Shogaol]	< 4.00	< 4.00	< 4.00	< 4.00	4.95	–	–	–
CCCCCCCCC[C@H](O)CC(=O)CCc1ccc(O)c(OC)c1 [10-Gingerol]	< 4.00	4.59	< 4.00	< 4.00	< 4.00	–	–	–
O=C(/C=C/c1ccc(O)c(O)c1)O[C@H](Cc1ccc(O)c(O)c1)C(=O)O [Rosmarinic acid]	–	< 4.00	–	< 4.00	6.27	< 4.00	< 4.00	Blood-brain barrier permeability [4]: extremely low
O=c1cc(-c2ccc(O)c(O)c2)oc2cc(O)cc(O)c12 [Luteolin]	< 4.00	–	–	–	–	–	–	Blood-brain barrier passage ([4]; in vivo): capable of crossing blood-brain barrier; pIC50 ([5]; inhibition of [35S]GTPγS binding induced by 3 nM human NPY, KAN-TS cells, read-out: IC50 value NPY Y2): 5.08; pIC50 (AChE; reported value from previous study (**) ref 24): 4.49; pIC50 [2]: 4.31; pIC50 [3]: < 4.00
CRF: Stress hormone corticotropin-releasing factor (4136-s; Peptide Institute), injected ICV to induce delayed gastric emptying (SEEPPISLDLTFHLLREVLEMARAEQLAQQAHSNRKLMEII; ends and bridges not checked; UniProt P06850 154-194, looked up)	–	–	–	–	–	–	–	Gastric emptying rate of solid test meal (2 hours) after CRF (C57BL/6 mice): significantly decreased
C=CCc1ccc(O)c(-c2cc(CC=C)ccc2O)c1 [Magnolol]	–	–	–	–	–	4.49	< 4.00	Blood-brain barrier passage [4]: capable of traversing the blood-brain barrier; pIC50 (AChE; [9]): 4.16; pIC50 [2]: 4.37; pIC50 [3]: 4.30
C=CCc1ccc(O)c(-c2ccc(O)c(CC=C)c2)c1 [Honokiol]	–	–	–	4.44	4.28	4.40	< 4.00	Blood-brain barrier passage [4]: capable of traversing the blood-brain barrier; pIC50 (AChE; [9]): 4.24
CCCCCCC/C=C/C(=O)CCc1ccc(O)c(OC)c1 [8-Shogaol]	< 4.00	4.72	< 4.00	5.14	4.95	–	–	Detection in the brain ([4]; after oral administration of ginger extract ref 34): not detected in the brain
